For one series, the system named is spike wave discharges. In words: Attenuation of petit mal absence-like spike wave discharges (EEG). The series is classed as in vivo, male Wistar rats. The conditions noted are these: for effect on incidence of spike wave discharges: i.p., 20 min waking immobility, p<0.05 where significant; for Total spike wave duration: 5.0 μmol/kg i.p. As to the method: Animals: Male albino rats of the Wistar strain (CAMM Research) were maintained on a 12:12 hour light-dark cycle and individually housed throughout these experiments. They were fed standard rodent diet with food and water provided ad libitum.
EEG Recordings: To record spike wave discharges, rats were surgically implanted with permanently affixed EEG electrodes over the frontal codex using previously described techniques (Radek, Brain Res., 1993, in press). After at least a ten day recovery from this surgery, EEG recordings were made inside darkened sound attenuating chambers. Rats were allowed to move freely within the chambers and computerized activity monitors recorded animal motion during these studies. Only those rats that express spike wave discharges, as identified from preliminary recordings, were used to test the effects of nicotinic agents.
Drug studies: EEG recordings were obtained from each rat for a period of 20 minutes of total waking immobility immediately after administration of drug, or a drug-free control solution. Immobility was characterized as the absence of infrared beam interruptions from the activity monitor system. Spike wave activity was identified as regular 6-10 Hz complexes with amplitudes of 0.4 to 1.0 mV. The total spindling duration for 20 minutes of waking immobility was calculated by determining the length (in seconds) of each spike wave burst, and adding each of these times together to obtain a total spindle time for the recording session. Each rat was administered the control solution and one or two doses of the test compounds and each dosing was given at least 48 hours after the previous treatment.
The compound of Example 2 was dissolved in saline to the desired concentration.

Another series relates to ethanol-induced narcosis. The conditions noted are these: literature knowledge; cited from earlier work.
In series [1] the test system is neuronal nicotinic cholinergic channels in PC12 cells. Nature of the series: Cholinergic channel activator action in PC12 cells, whole-cell patch-clamp. The series is classed as cell-based, rat. The conditions noted are these: 10 μM antagonist; Example 2 300 μM; N=3. The procedure:
Electrophysiologic recordings were obtained from differentiated (neurite-bearing) cells after 4-7 days exposure to NGF. […] After 20 minutes, differentiating medium was added (DMEM containing 100 ng/ml nerve growth factor, 5% heat-inactivated fetal calf serum and 2.5% heat-inactivated horse serum) and the cells were refed with this medium every 3 days.
The intracellular (recording pipette) solution consisted of 140 mM KCl, 1.0 mM CaCl2, 2.0 mM MgCl2, 11 mM K-EGTA, and 10 mM K-HEPES buffer (7.3 pH, 315 mOsm). Osmolarities were adjusted using dextrose such that the extracellular solution was 10 mOsm hypertonic compared to the intracellular solution. Voltage-gated inward (sodium) and outward (potassium) currents were monitored throughout the experiment to determine establishment and maintenance of the whole-cell recording configuration.
(In general: The patch-clamp technique gives a direct electrical read-out from membranes.)

The test system of series [2] is resting cortical perfusion in the parietotemporal cortex. The following applies: humans; cited from earlier work.
For series [3] the following is noted: cited from earlier work.
The subject of a further series is nicotinic receptors. The conditions noted are these: chronic administration, without affecting affinity; cited from earlier work.
The test system of series [4] is signs and symptoms of nicotine withdrawal. The following applies: double-blind studies; cited from earlier work.
The next series concerns cognitive function. The conditions noted are these: acutely and chronically administered; cited from earlier work.

Regarding `CN1C(=O)CN=C(c2ccccc2)c2cc(Cl)ccc21` [Diazepam, diazepam], the “effect on incidence of spike wave discharges” value in the series on spike wave discharges is given as “significantly lowered these discharges”. Besides, the “effect on ethanol sleep time (known)” value in the series on ethanol-induced narcosis is on record as “potentiate the effect of ethanol by increasing the sleep time”.
Take `CNC1(C)C2CCC(C2)C1(C)C` (centres unmarked) [Mecamylamine, mecamylamine]: in series [1], the “inhibition of the response to Example 2” value is reported as 81±3%. Besides, the figures for the “Total spike wave duration” value with spike wave discharges (Table 10) and with spike wave discharges (Table 11) were 45.7 ± 15.0 s and 46.8 ± 6.4 s, respectively. In the series with spike wave discharges, the “effect on incidence of spike wave discharges” value is listed as “did not affect the incidence of spike/wave discharges”. Moreover, the “blockade of agonist-induced lowering of spike wave discharges” value with spike wave discharges (mecamylamine with (-)-nicotine or Example 2) was “blocked the effects of both (-)-nicotine and the compound of Example 2”. In addition, the “effect on resting cortical perfusion” value in series [2] is recorded as “reduces resting cortical perfusion in the parietotemporal cortex of humans”.
`CN1CCCC1c1cccnc1` (centres unmarked) [nicotine]: the pharmacokinetics result in series [3] (in vivo) is “unfavorable pharmacokinetics”. In series [3] (oral), the oral bioavailability result is on record as “poor oral bioavailability”. In the series on nicotinic receptors, the “up-regulation of number of receptors” value is recorded as 50-100%. In series [4], the “suppression of withdrawal signs and symptoms versus placebo” value is recorded as “far superior to a placebo”. In addition, the “effect on cognitive function” value in the series with cognitive function is on record as “enhances cognitive function in rats”.
With `CCCC(C)C1(CC)C(=O)NC(=O)NC1=O` (centres unmarked) [pentobarbital], the “effect on ethanol sleep time (known)” value with ethanol-induced narcosis was “potentiate the effect of ethanol by increasing the sleep time”.
